Experimental data from patent publication US9169240B2, “Ketone linked benzothiazole inhibitors of endothelial lipase” (BRISTOL-MYERS SQUIBB COMPANY, priority 2012, dated 2015).

Molecular target: Endothelial lipase (EL) (Homo sapiens (Human), UniProt Q9Y5X9)
Assay: Endothelial lipase (EL) activity assay with fluorescent substrate A10070 in DMPG vesicles
Format: biochemical
Method: Endothelial lipase activity was measured using a fluorescent substrate, A10070, (Invitrogen, CA) doped into an artificial vesicle containing DMPG (Avanti Polar Lipids) as the excipient. Vesicles were prepared by combining 285 μL of 1 mM DMPG in a 1:1 mixture of MeOH and CHCl3 with 15 μL of 1 mM A10070 in a 1:1 mixture of MeOH and CHCl3. The mixture was dried under nitrogen and resuspended in 150 μL of 50 mM HEPES pH 8.0 buffer containing 100 mM NaCl and 0.2 mM EDTA. The sample was allowed to sit at rt for 15 min and then was sonicated 3×4 mins on ice with a Branson Sonicator using duty cycle 1. This preparation provides vesicles with a mole fraction of 0.05 for the FRET substrate.
The enzymatic assay was measured using white, opaque 96-well half area plates. Each well contained 60 μL of assay buffer (50 mM HEPES pH 8.0, 50 mM NaCl and 1 mM CaCl2) and 2 ul of a DMSO solution containing compound of interest. Conditioned media obtained from HT-1080 cells, which were transformed by RAGE technology (Athersys) to overexpress endogenous EL, was added and the reaction was allowed to incubate for 20 min at 37° C. with gentle agitation. The reaction was started by the addition of 20 μL of a 1:4 dilution of vesicles. The final total reaction volume was 100 μL. The reaction rates were measured on a Gemini plate reader with an excitation wavelength of 488 nm and an emission of 530 nm. Readings were taken every 20 seconds for 10 min with agitation between each reading. The slope of the linear portion of the readout was used to calculate the rate of the reaction.

Chain of Endothelial lipase (EL) (Q9Y5X9 21-500): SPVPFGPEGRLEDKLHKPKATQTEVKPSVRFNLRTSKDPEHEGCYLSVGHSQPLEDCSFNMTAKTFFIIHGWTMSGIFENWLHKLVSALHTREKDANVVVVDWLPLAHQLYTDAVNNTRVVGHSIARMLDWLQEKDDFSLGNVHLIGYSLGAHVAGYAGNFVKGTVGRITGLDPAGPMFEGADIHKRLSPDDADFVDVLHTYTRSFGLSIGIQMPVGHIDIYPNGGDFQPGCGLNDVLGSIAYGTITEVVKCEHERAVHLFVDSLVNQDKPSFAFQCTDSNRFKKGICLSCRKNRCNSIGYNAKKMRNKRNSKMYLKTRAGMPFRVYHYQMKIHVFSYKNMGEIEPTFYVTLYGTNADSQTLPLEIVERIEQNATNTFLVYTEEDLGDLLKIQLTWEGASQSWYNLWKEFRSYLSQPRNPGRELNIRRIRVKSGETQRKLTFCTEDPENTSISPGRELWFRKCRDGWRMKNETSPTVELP

SMILES	IC50 [nM]
O=C(c1nnc(NC2CCCNC2=O)o1)c1nc2ccc(-c3ccccc3)cc2s1 (single isomer, unassigned) [Example 77, 3-((5-(6-phenylbenzo[d]thiazole-2-carbonyl)-1,3,4-oxadiazol-2-yl)amino)piperidin-2-one]	140
O=C(c1nnc(NC2CCCNC2=O)o1)c1nc2ccc(-c3ccccc3)cc2s1 (single isomer, unassigned) [Example 78, 3-((5-(6-phenylbenzo[d]thiazole-2-carbonyl)-1,3,4-oxadiazol-2-yl)amino)piperidin-2-one]	27
O=C(c1nnc(CC2CCNC2=O)o1)c1nc2ccc(-c3ccccc3)cc2s1 (centres unmarked) [Example 1]	< 10
O=C(c1nnc(CC2CCNC2=O)o1)c1nc2ccc(-c3ccccc3)cc2s1 (centres unmarked) [Example 3, 3-((5-(6-phenylbenzo[d]thiazole-2-carbonyl)-1,3,4-oxadiazol-2-yl)methyl)pyrrolidin-2-one]	< 10
COC(=O)N[C@H]1CC[C@H](c2nnc(C(=O)c3nc4ccc(-c5ccccc5)cc4s3)o2)CC1 [Example 6, methyl ((1R,4R)-4-(5-(6-phenylbenzo[d]thiazole-2-carbonyl)-1,3,4-oxadiazol-2-yl)cyclohexyl)carbamate]	99
O=C(c1nnc(C2CCN(c3ncccn3)CC2)o1)c1nc2ccc(-c3ccccc3)cc2s1 [Example 7, (6-phenylbenzo[d]thiazol-2-yl)(5-(1-(pyrimidin-2-yl)piperidin-4-yl)-1,3,4-oxadiazol-2-yl)methanone]	< 10
O=C(c1nnc(CCc2ncc[nH]2)o1)c1nc2ccc(-c3ccccc3)cc2s1 [Example 8, (5-(2-(1H-imidazol-2-yl)ethyl)-1,3,4-oxadiazol-2-yl)(6-phenylbenzo[d]thiazol-2-yl)methanone]	11
O=C(c1nnc(CCc2ncc(-c3ccccc3)o2)o1)c1nc2ccc(-c3ccccc3)cc2s1 [Example 9, (6-phenylbenzo[d]thiazol-2-yl)(5-(2-(5-phenyloxazol-2-yl)ethyl)-1,3,4-oxadiazol-2-yl)methanone]	< 10
O=C(c1nnc(C2CCS(=O)(=O)N2)o1)c1nc2ccc(-c3ccccc3)cc2s1 (centres unmarked) [Example 11, (5-(1,1-dioxidoisothiazolidin-3-yl)-1,3,4-oxadiazol-2-yl)(6-phenylbenzo[d]thiazol-2-yl)methanone]	< 10
NS(=O)(=O)Cc1nnc(C(=O)c2nc3c(F)cc(-c4ccccc4)cc3s2)o1 [Example 12, (5-(4-fluoro-6-phenylbenzo[d]thiazole-2-carbonyl)-1,3,4-oxadiazol-2-yl)methanesulfonamide]	< 10
O=C(c1nnc(C2CCN(c3ccc(C(F)(F)F)cc3)CC2)o1)c1nc2ccc(-c3ccccc3)cc2s1 [Example 13, (6-phenylbenzo[d]thiazol-2-yl)(5-(1-(4-(trifluoromethyl)phenyl)piperidin-4-yl)-1,3,4-oxadiazol-2-yl)methanone]	< 10
O=C(c1nnc(CCc2nc3ccccc3[nH]2)o1)c1nc2c(F)cc(-c3ccccc3)cc2s1 [Example 14, (5-(2-(1H-benzo[d]imidazol-2-yl)ethyl)-1,3,4-oxadiazol-2-yl)(4-fluoro-6-phenylbenzo[d]thiazol-2-yl)methanone]	< 10
CC(C)(C)OC(=O)N1CCC(CCc2nnc(C(=O)c3nc4ccc(-c5ccc(F)cc5)cc4s3)o2)CC1 [Example 15, tert-butyl 4-(2-(5-(6-(4-fluorophenyl)benzo[d]thiazole-2-carbonyl)-1,3,4-oxadiazol-2-yl)ethyl)piperidine-1-carboxylate]	< 10
CC(C)(C)OC(=O)N[C@H]1CC[C@H](c2nnc(C(=O)c3nc4ccc(-c5ccccc5)cc4s3)o2)CC1 [Example 16, tert-butyl ((1r,4r)-4-(5-(6-phenylbenzo[d]thiazole-2-carbonyl)-1,3,4-oxadiazol-2-yl)cyclohexyl)carbamate]	31
O=C(c1nnc(C2CCN(Cc3ccc(F)cc3)CC2)o1)c1nc2ccc(-c3ccccc3)cc2s1 [Example 17, (5-(1-(4-fluorobenzyl)piperidin-4-yl)-1,3,4-oxadiazol-2-yl)(6-phenylbenzo[d]thiazol-2-yl)methanone]	< 10
CC(C)(C)OC(=O)N1CCC(c2nnc(C(=O)c3nc4ccc(-c5ccc(F)cc5)cc4s3)o2)CC1 [Example 18, tert-butyl 4-(5-(6-(4-fluorophenyl)benzo[d]thiazole-2-carbonyl)-1,3,4-oxadiazol-2-yl)piperidine-1-carboxylate]	< 10
O=C(c1nnc(CCC2CCN(CC3CC3)CC2)o1)c1nc2ccc(-c3ccccc3)cc2s1 [Example 19, (5-(2-(1-(cyclopropylmethyl)piperidin-4-yl)ethyl)-1,3,4-oxadiazol-2-yl)(6-phenylbenzo[d]thiazol-2-yl)methanone]	13
CC(C)(C)OC(=O)N1CCC(c2nnc(C(=O)c3nc4ccc(-c5ccccc5)cc4s3)o2)CC1 [Example 20, tert-butyl 4-(5-(6-phenylbenzo[d]thiazole-2-carbonyl)-1,3,4-oxadiazol-2-yl)piperidine-1-carboxylate]	< 10
O=C(c1nnc(C2CCN(Cc3ccc(OC(F)(F)F)cc3)CC2)o1)c1nc2ccc(-c3ccccc3)cc2s1 [Example 23, (6-Phenylbenzo[d]thiazol-2-yl)(5-(1-(4-(trifluoromethoxy)benzyl)piperidin-4-yl)-1,3,4-oxadiazol-2-yl)methanone]	< 10
CN(Cc1nnc(C(=O)c2nc3ccc(-c4ccccc4)cc3s2)o1)S(N)(=O)=O [Example 27, N-methyl-N-((5-((6-phenyl-1,3-benzothiazol-2-yl)carbonyl)-1,3,4-oxadiazol-2-yl)methyl)sulfamide]	23
NS(=O)(=O)NCCc1nnc(C(=O)c2nc3ccc(-c4ccccc4)cc3s2)o1 [Example 28, N-(2-(5-((6-phenyl-1,3-benzothiazol-2-yl)carbonyl)-1,3,4-oxadiazol-2-yl)ethyl)sulfamide]	36
CC1(Cc2nnc(C(=O)c3nc4ccc(-c5ccccc5)cc4s3)o2)NC(=O)NC1=O (centres unmarked) [Example 32, 5-methyl-5-((5-(6-phenylbenzo[d]thiazole-2-carbonyl)-1,3,4-oxadiazol-2-yl)methyl)-imidazol-idine-2,4-dione]	< 10
CC1(Cc2nnc(C(=O)c3nc4ccc(-c5ccccc5)cc4s3)o2)NC(=O)NC1=O (centres unmarked) [Example 33, 5-methyl-5-((5-(6-phenylbenzo[d]thiazole-2-carbonyl)-1,3,4-oxadiazol-2-yl)methyl)-imidazol-idine-2,4-dione]	21
CC1(Cc2nnc(C(=O)c3nc4ccc(-c5ccccc5)cc4s3)o2)NC(=O)NC1=O (centres unmarked) [Example 34, 5-methyl-5-((5-(6-phenylbenzo[d]thiazole-2-carbonyl)-1,3,4-oxadiazol-2-yl)methyl)-imidazol-idine-2,4-dione]	< 10
CC1(Cc2nnc(C(=O)c3nc4ccc(-c5ccc(F)cc5)cc4s3)o2)NC(=O)NC1=O (centres unmarked) [Example 35, 5-((5-(6-(4-fluoro-phenyl)benzo[d]thiazole-2-carbonyl)-1,3,4-oxadiazol-2-yl)methyl)-5-methyl-imidazolidine-2,4-dione]	< 10
CC1(Cc2nnc(C(=O)c3nc4ccc(-c5ccccc5)cc4s3)o2)NC(=O)N(CC(F)(F)F)C1=O (centres unmarked) [Example 38, 5-methyl-5-((5-(6-phenylbenzo[d]thiazole-2-carbonyl)-1,3,4-oxadiazol-2-yl)methyl)-3-(2,2,2-trifluoro-ethyl)imidazol-idine-2,4-dione]	11
